Reference: US12421243B2, “Pharmaceutically effective compounds inhibiting selectively the myosin 2 isoforms” (PRINTNET KERESKEDELMI ÉS SZOLGÁLTATÓ KFT., priority 2018, dated 2025)

Tests used:
[1] = biological target: recombinant Dictyostelium miozin (Dictyostelium) (Dictyostelium discoideum, UniProt P08799); experiment: actomyosin steady state ATPase measurement, Dictyostelium myosin; type: biochemical; conditions: for inhibition at 50 µM: read-out: % inhibition at 50 μM (or 100 μM if racemate) Dicty; for IC50: concentration required for semi-maximal inhibition of ATPase, read-out: IC50 (μM) Dicty; for inhibition at 5 µM: read-out: % inhibition at 5 μM (or 10 μM if racemate) Dicty
Excerpt: (§1) […]; (ii) the concentration required for semi-maximal inhibition.

[2] = biological target: recombinant human non-muscle myosin 2 NM2A (Homo sapiens, UniProt P35579); experiment: actomyosin steady state ATPase measurement, NM2A; type: biochemical; conditions: for inhibition at 50 µM: read-out: % inhibition at 50 μM (or 100 μM if racemate) NM2A, 50 μM (100 μM if racemate); for inhibition at 50 µM / inhibition at 5 µM: ATPase activity; for inhibition at 5 µM: read-out: % inhibition at 5 μM (or 10 μM if racemate) NM2A, 5 μM (10 μM if racemate); for IC50: concentration required for semi-maximal inhibition of ATPase; for Inhibition (%) NM2A: maximum inhibition, compounds in IC50 range 5-10 μM; for % inhibition. complete NM2A: maximum value of inhibition of ATPase activity
Excerpt: as §1

[3] = biological target: recombinant human non-muscle myosin 2 NM2B (Homo sapiens, UniProt P35580); experiment: actomyosin steady state ATPase measurement, NM2B; type: biochemical; conditions: for inhibition at 50 µM: read-out: % inhibition at 50 μM (or 100 μM if racemate) NM2B, 50 μM (100 μM if racemate)
Excerpt: as §1

[4] = biological target: recombinant human non-muscle myosin 2 NM2C (Homo sapiens, UniProt Q7Z406); experiment: actomyosin steady state ATPase measurement, NM2C; type: biochemical; conditions: for inhibition at 50 µM: read-out: % inhibition at 50 μM (or 100 μM if racemate) NM2C, 50 μM (100 μM if racemate); for inhibition at 50 µM / inhibition at 5 µM: ATPase activity; for IC50: concentration required for semi-maximal inhibition of ATPase; for inhibition at 5 µM: read-out: % inhibition at 5 μM (or 10 μM if racemate) NM2C, 5 μM (10 μM if racemate)
Excerpt: as §1

[5] = biological target: T1, isolated porcine cardiac ventricular myocardium (cardiac) (Sus scrofa, UniProt P79293); experiment: actomyosin steady state ATPase measurement, cardiac myosin; type: biochemical; conditions: for inhibition at 50 µM: read-out: % inhibition at 50 μM (or 100 μM if racemate) cardiac, 50 μM (100 μM if racemate); for inhibition at 50 µM / inhibition at 5 µM: ATPase activity; for IC50: concentration required for semi-maximal inhibition of ATPase; for % inhibition. complete cardiac: maximum value of inhibition of ATPase activity; for inhibition at 5 µM: read-out: % inhibition at 5 μM (or 10 μM if racemate) cardiac, 5 μM (10 μM if racemate)
T1 construct: isolated porcine cardiac ventricular myocardium (cardiac); from tissue; host or cells: porcine cardiac ventricle
Excerpt: as §1

[6] = system: isolated rabbit skeletal muscle myosin (skeletal); experiment: actomyosin steady state ATPase measurement, skeletal muscle myosin; type: biochemical; conditions: for % inhibition at 50 μM (or 100 μM if racemate) Skeletal: 50 μM (100 μM if racemate); for % inhibition at 50 μM (or 100 μM if racemate) Skeletal / % inhibition at 5 μM (or 10 μM if racemate) Skeletal: ATPase activity; for % inhibition at 5 μM (or 10 μM if racemate) Skeletal: 5 μM (10 μM if racemate); for IC50: concentration required for semi-maximal inhibition of ATPase; for % inhibition. complete Skeletal: maximum value of inhibition of ATPase activity
Excerpt: as §1

[7] = biological target: isolated smooth muscle myosin (UniProt P10587); type: biochemical, chamois; conditions: for % inhibition at 50 μM (or 100 μM if racemate) Smooth: 50 μM (100 μM if racemate); for % inhibition at 50 μM (or 100 μM if racemate) Smooth / % inhibition at 5 μM (or 10 μM if racemate) Smooth: ATPase activity; for % inhibition at 5 μM (or 10 μM if racemate) Smooth: 5 μM (10 μM if racemate); for % inhibition. complete Smooth: maximum value of inhibition of ATPase activity
[8] = biological target: isolated smooth muscle myosin (UniProt P10587); type: biochemical, chamois; conditions: concentration required for semi-maximal inhibition of ATPase
Excerpt: (ii) the concentration required for semi-maximal inhibition.

[9] = maximum value of inhibition of ATPase activity

isolated smooth muscle myosin, sequence (P10587 whole entry): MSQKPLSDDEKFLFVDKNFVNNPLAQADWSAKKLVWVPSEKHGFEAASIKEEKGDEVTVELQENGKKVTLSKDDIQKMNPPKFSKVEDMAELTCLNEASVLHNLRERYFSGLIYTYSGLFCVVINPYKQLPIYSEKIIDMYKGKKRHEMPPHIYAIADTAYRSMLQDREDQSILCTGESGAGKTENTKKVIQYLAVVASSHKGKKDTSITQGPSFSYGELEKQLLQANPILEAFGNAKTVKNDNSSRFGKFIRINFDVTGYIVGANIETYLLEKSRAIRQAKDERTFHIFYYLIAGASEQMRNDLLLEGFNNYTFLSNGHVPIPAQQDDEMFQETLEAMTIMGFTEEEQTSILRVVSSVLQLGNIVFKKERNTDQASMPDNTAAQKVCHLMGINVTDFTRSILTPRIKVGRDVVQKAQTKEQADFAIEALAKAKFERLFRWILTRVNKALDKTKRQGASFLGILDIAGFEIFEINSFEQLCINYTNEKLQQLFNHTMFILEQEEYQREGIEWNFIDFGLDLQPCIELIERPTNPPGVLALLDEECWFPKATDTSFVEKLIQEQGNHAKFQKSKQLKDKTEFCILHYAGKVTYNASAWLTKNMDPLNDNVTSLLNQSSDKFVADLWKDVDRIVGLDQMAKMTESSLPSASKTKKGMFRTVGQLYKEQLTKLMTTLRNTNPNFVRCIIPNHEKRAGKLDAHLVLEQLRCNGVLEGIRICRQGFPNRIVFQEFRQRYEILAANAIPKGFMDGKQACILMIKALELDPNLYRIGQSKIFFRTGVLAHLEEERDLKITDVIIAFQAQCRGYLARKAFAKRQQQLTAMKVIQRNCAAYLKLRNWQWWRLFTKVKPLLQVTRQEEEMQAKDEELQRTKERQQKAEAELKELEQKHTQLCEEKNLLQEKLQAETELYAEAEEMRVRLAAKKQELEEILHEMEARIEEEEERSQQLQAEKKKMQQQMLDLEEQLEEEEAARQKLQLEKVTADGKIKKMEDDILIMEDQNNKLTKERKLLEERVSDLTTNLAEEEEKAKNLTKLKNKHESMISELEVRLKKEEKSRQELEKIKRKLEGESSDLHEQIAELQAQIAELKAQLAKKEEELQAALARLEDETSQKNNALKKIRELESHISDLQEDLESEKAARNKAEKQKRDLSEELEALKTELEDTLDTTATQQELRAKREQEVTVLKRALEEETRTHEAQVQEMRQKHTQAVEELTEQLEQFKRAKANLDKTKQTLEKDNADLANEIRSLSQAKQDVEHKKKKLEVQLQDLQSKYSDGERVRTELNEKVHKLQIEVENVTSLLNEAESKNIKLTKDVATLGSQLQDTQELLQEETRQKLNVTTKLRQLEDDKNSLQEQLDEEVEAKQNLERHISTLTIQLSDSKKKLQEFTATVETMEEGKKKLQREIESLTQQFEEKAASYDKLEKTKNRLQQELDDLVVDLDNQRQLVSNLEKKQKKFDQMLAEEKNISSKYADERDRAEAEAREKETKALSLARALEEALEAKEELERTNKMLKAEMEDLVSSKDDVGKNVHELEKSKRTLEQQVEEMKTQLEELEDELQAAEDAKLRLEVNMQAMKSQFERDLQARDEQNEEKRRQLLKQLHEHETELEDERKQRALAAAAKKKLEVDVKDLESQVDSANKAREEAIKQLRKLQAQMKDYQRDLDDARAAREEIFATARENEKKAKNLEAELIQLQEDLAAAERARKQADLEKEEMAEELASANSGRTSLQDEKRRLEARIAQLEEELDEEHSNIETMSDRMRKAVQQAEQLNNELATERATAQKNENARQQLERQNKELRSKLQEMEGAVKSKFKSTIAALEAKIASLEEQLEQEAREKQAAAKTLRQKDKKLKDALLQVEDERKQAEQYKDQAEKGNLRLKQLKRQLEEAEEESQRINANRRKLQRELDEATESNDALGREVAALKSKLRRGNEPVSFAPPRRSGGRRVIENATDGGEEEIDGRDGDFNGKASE
recombinant human non-muscle myosin 2 NM2B, sequence (P35580 whole entry): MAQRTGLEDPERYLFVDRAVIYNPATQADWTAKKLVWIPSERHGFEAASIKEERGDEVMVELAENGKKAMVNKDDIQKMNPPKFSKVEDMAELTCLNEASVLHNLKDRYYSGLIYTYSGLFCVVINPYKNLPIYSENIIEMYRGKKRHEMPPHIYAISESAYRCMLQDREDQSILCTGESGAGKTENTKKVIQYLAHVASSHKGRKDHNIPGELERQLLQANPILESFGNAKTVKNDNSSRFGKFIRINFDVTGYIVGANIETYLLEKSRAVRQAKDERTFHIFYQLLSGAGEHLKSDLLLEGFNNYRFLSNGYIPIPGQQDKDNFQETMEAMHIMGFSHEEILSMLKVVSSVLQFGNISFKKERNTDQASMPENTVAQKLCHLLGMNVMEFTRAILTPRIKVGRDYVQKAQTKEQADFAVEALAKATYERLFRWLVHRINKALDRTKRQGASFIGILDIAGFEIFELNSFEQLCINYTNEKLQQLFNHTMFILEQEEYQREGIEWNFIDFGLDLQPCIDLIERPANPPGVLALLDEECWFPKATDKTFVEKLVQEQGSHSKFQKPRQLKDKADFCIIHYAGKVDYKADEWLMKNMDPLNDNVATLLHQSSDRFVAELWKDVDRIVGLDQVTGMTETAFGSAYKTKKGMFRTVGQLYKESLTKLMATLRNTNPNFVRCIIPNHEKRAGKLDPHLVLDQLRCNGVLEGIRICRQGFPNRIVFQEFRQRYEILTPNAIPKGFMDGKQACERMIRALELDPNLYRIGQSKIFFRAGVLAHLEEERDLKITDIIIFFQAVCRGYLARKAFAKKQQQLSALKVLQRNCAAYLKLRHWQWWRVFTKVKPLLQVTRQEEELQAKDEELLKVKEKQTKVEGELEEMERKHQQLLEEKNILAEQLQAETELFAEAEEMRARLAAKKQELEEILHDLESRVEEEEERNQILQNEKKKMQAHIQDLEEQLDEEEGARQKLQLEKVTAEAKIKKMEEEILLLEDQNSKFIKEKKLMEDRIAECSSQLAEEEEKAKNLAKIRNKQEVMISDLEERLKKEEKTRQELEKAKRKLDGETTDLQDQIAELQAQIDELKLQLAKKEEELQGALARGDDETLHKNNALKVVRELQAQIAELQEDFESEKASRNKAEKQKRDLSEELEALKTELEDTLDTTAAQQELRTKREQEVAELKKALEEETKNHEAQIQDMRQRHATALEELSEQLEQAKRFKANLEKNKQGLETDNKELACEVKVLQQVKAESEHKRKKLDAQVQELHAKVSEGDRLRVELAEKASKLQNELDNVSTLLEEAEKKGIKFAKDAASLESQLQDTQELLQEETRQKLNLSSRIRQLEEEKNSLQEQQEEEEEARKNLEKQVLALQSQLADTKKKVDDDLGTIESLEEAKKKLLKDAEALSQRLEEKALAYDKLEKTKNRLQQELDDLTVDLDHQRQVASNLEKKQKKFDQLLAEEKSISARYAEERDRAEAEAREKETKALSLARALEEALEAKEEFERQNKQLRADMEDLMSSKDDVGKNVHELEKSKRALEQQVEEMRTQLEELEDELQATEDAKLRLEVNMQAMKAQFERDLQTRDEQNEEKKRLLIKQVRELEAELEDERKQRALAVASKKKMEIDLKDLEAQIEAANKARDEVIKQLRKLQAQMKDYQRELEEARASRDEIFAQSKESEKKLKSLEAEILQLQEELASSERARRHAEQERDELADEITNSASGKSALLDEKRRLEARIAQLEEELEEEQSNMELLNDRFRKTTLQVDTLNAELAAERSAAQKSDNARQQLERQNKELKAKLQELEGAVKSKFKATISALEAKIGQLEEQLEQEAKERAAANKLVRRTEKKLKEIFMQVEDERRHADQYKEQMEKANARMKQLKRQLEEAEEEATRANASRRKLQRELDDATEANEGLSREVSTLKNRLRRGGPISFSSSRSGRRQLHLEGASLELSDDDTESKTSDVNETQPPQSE

Work on O=C1c2ncccc2N=C2N(c3ccccc3)CCC12O (stereo not drawn) [Compound 190, 8a-Hydroxy-6-phenyl-6H,7H,8H,8aH,9H-pyrrolo[2,3-b]1,5-naphthyridin-9-one] yielded an inhibition at 50 µM [1] of 44%, an inhibition at 50 µM [2] of 15% and an inhibition at 50 µM ([3]; ATPase activity) of 24%. The inhibition at 50 µM [4] was 41%, the inhibition at 50 µM [5] was 43% and the “% inhibition at 50 μM (or 100 μM if racemate) Skeletal” value [6] was 86%. For the same compound, the “% inhibition at 50 μM (or 100 μM if racemate) Smooth” value [7] was 34%.
For Cc1nsc2c1C(=O)C1(O)CCN(c3ccccc3)C1=N2 (stereo not drawn) [Compound 206, 12-phenyl-9-Hydroxy-6-methyl-4-thia-2,5,12-triazatricyclo[7.3.0.0^3,7]dodeca-1,3(7),5-trien-8-one], the inhibition at 5 µM [2] was 9%, the IC50 [5] was 10 µM and the “% inhibition. complete cardiac” value [5] was 47%. The inhibition at 5 µM [5] was 16%, the inhibition at 50 µM [5] was 39% and the “% inhibition at 5 μM (or 10 μM if racemate) Skeletal” value [6] was 26%. The “% inhibition at 50 μM (or 100 μM if racemate) Skeletal” value [6] was 78%, the IC50 [6] was 14 µM and the “% inhibition. complete Skeletal” value [6] was 100%. The IC50 [8] was 9 µM, the “% inhibition at 5 μM (or 10 μM if racemate) Smooth” value [7] was 9% and the “% inhibition at 50 μM (or 100 μM if racemate) Smooth” value [7] was 21%. For the same compound, the “% inhibition. complete Smooth” value [7] was 24%.
O=C1c2cccnc2N=C2N(c3ccccc3)CCC12O (stereo not drawn) [Compound 189, 3a-Hydroxy-1-phenyl-1H,2H,3H,3aH,4H-pyrrolo[2,3-b]1,8-naphthyridin-4-one] showed an IC50 [1] greater than 100 µM, an inhibition at 5 µM [1] of 0% and an inhibition at 50 µM [1] of 0%. The IC50 [2] was 6 µM, the “Inhibition (%) NM2A” value [2] was 8% and the “% inhibition. complete NM2A” value [2] was 8%. The inhibition at 5 µM [2] was 4%, the inhibition at 50 µM [2] was 7% and the IC50 ([3]; concentration required for semi-maximal inhibition of ATPase) was greater than 100 µM. For the same compound, the inhibition at 5 µM ([3]; read-out: % inhibition at 5 μM (or 10 μM if racemate) NM2B, 5 μM (10 μM if racemate), ATPase activity) was 0%, the inhibition at 50 µM ([3]; ATPase activity) was -5% and the IC50 [4] was 1 µM. For the same compound, the inhibition at 5 µM [4] was 11%, the inhibition at 50 µM [4] was 13% and the IC50 [5] was 26 µM. For the same compound, the “% inhibition. complete cardiac” value [5] was 72%, the inhibition at 5 µM [5] was 11% and the inhibition at 50 µM [5] was 47%. The “% inhibition at 5 μM (or 10 μM if racemate) Skeletal” value [6] was 37%, the “% inhibition at 50 μM (or 100 μM if racemate) Skeletal” value [6] was 80% and the IC50 [6] was 7 µM. For the same compound, the “% inhibition. complete Skeletal” value [6] was 92%, the IC50 [8] was 1 µM and the “% inhibition at 5 μM (or 10 μM if racemate) Smooth” value [7] was 8%. The “% inhibition at 50 μM (or 100 μM if racemate) Smooth” value [7] was 7%, the “Inhibition (%) smooth” value ([7]; maximum inhibition, compounds in IC50 range 1-5 μM) was 8% and the “% inhibition. complete Smooth” value [7] was 8%.
For Cc1cc2c(s1)N=C1N(c3cccs3)CC[C@@]1(O)C2=O [Compound 208, (9S)-9-Hydroxy-5-methyl-12-(thiophen-2-yl)-4-thia-2,12-diazatricyclo[7.3.0.0^3,7]dodeca-1,3(7),5-trien-8-one], the IC50 [1] was 3.6 µM, the “Inhibition (%) Dicty” value ([1]; maximum inhibition, compounds in IC50 range 1-11 μM) was 95% and the “% inhibition. complete Dicty” value [1, 9] was 95%. For the same compound, the inhibition at 5 µM [1] was 55%, the inhibition at 50 µM [1] was 89% and the IC50 [2] was 7.2 µM. The “Inhibition (%) NM2A” value [2] was 89%, the “% inhibition. complete NM2A” value [2] was 89% and the inhibition at 5 µM [2] was 37%. For the same compound, the inhibition at 50 µM [2] was 78%, the IC50 [4] was 1.7 µM and the “% inhibition. complete NM2C” value [4, 9] was 69%. For the same compound, the inhibition at 5 µM [4] was 54%, the inhibition at 50 µM [4] was 65% and the “% inhibition at 5 μM (or 10 μM if racemate) Skeletal” value [6] was 87%. The “% inhibition at 50 μM (or 100 μM if racemate) Skeletal” value [6] was 93%, the IC50 [6] was 0.36 µM and the “% inhibition. complete Skeletal” value [6] was 95%. The IC50 [8] was 7.8 µM, the “% inhibition at 5 μM (or 10 μM if racemate) Smooth” value [7] was 26% and the “% inhibition at 50 μM (or 100 μM if racemate) Smooth” value [7] was 60%. The “% inhibition. complete Smooth” value [7] was 66%.
